Experimental data as given in US20250002450A1, “CATIONIC STEROID COMPOUNDS, METHOD OF OBTAINING THEREOF, FORMULATIONS COMPRISING THEREOF AND THEIR USES” (UNIVERSIDADE DO PORTO, priority 2021, published 2025).
Converted amounts (≈) assume the structure as drawn.

Legend:
C. albicans ATCC 10231 [1] = assay: Mitochondrial dehydrogenases activity, MTT reduction assay; format: cell-based, Candida albicans; details: 8 μg/mL, 2 h
Protocol: In order to determine whether compound 1 could also affect mitochondrial function, MTT reduction assay was performed. In this assay, tetrazolium salts are reduced to purple formazan derivatives by mitochondrial dehydrogenases, which can be measured spectrophotometrically and reported to mitochondrial activity and, indirectly, to cell viability. In this assay, cells were exposed to the test compounds for 2 h ([FIG. 11]). […] An increase in reactive oxygen species (ROS) has been linked to azoles activity: even though their primary mode of action is the inhibition of ergosterol synthesis, they also induce accumulation of ROS, which enhances their antifungal activity and translates into an increase in mitochondrial activity at inhibitory concentrations. […] Mitochondrial dehydrogenase activity was evaluated by the MTT assay, as previously described, with some modifications. Cell suspensions of C. albicans ATCC 10231 were prepared in the same manner as described above and, after overnight incubation at 36° C., were centrifuged at 3500 rpm for 15 min, the supernatant was removed, and the cells were carefully resuspended in 2 mL of RPMI. Test conditions and controls were the same as described above, but the time of exposure to the test compounds was 2 h. After the exposure time, cell suspensions were centrifuged at 3500 rpm for 10 min, the supernatant was removed, and 500 μL of MTT solution (0.5 mg/mL in RPMI, at 35° C.) (Thiazolyl Blue Tetrazolium Bromide, Alfa Aesar, Ward Hill, MA, USA) were added. After a 1 h incubation at 35° C., the insoluble formazan product resulting from the conversion of MTT by mitochondrial dehydrogenases of metabolically active cells was solubilized with 300 μL of DMSO. 100 μL of each sample were transferred in duplicate to a microtiter plate and the extent of the reduction of MTT to formazan was quantified by measuring the absorbance at 570 nm. Three independent assays were performed in duplicate, and the results are expressed as percentage of MTT reduction, using the untreated cells as control.

C. albicans ATCC 10231 [2] = assay: Propidium iodide influx assay (SYTO 9/PI); format: cell-based, Candida albicans; details: 8 μg/mL, 5 min
Protocol: Influx of PI in C. albicans ATCC 10231 treated with compound 1 was evaluated using a commercial kit, which includes fluorescent nucleic acid stains SYTO™ 9 and PI, and measurements were conducted in a fluorescence microplate reader. […] The ability of PI to penetrate cells with damaged membranes makes it suitable for studying the effect of drugs on cell membranes.
In order to assess membrane integrity by the PI influx assay, a commercial kit was used (LIVE/DEAD® BacLight™ Bacterial Viability Kit, for microscopy & quantitative assays, Invitrogen by Thermo Fisher Scientific, Waltham, MA, USA), which includes fluorescent nucleic acid stains SYTO® 9 and PI. Briefly, C. albicans ATCC 10231 colonies from overnight cultures in SDA were suspended in sterile saline and adjusted to 0.5 McFarland. This suspension was then diluted in RPMI (1:50 followed by 1:20) to achieve a final concentration of 0.5-2.5×10^3 CFU/mL and the tubes were incubated overnight at 36° C. in a water bath with shaking. The following day, the cell suspensions were centrifuged at 3500 rpm for 15 min, the supernatant was removed, and the cells were carefully resuspended in 2 mL of 0.85% NaCl (VWR International, Radnor, PA, USA) prepared in ultrapure water. An aliquot of this suspension was then added to each tube of 0.85% NaCl alone (control) or 0.85% NaCl plus an appropriate amount of test compound, in a 1:10 proportion. […] Fluorescence intensity of the stained yeast suspensions was obtained in a microplate reader (Synergy HT, BioTek Instruments) by two consecutive measurements: with excitation wavelength 485 nm and emission wavelength 528 nm (SYTO® 9) and with excitation wavelength 485 nm and emission wavelength 590 nm (PI). Data were analyzed by subtracting background fluorescence from each sample, dividing fluorescence intensity of SYTO® 9 by fluorescence intensity of PI, and are presented as a percentage of control. […]

C. albicans ATCC 10231 [3] = assay: Ergosterol binding assay; format: cell-based, Candida albicans
Protocol: Ceragenins have been described to interact with the lipophilic environment of microbial membranes and ergosterol is the major sterol component of fungal plasma membrane, and the target of several antifungals. As such, in order to evaluate the ability of compound 1 to bind to membrane ergosterol of C. albicans ATCC 10231, MICs were determined in the absence and presence of exogenous ergosterol ([FIG. 10]). If the tested compound has the ability to perturb membrane integrity by binding to ergosterol, is expected that, in the presence of exogenous ergosterol, the compound binds to it, decreasing the amount of compound available to bind to membrane ergosterol, therefore increasing the MIC. Amphotericin B was used as a positive control for this assay and MICs obtained were 8 times higher in the presence of 400 μg/mL of exogenous ergosterol than in its absence (2 to 16 μg/mL, data not shown). […] The ability of compound 1 to bind to membrane ergosterol of C. albicans ATCC 10231, was evaluated by the ergosterol binding assay, as previously described. Briefly, MICs of compound 1 were determined by broth microdilution, as described above, in the absence and presence of ergosterol (Sigma-Aldrich, St. Louis, MO, USA) at a final concentration of 400 μg/mL. Ergosterol was prepared immediately before being added to the plates, by maceration and dissolution in DMSO. The formed emulsion was then homogenized, heated to increase solubility, and diluted in RPMI. Amphotericin B was used as positive control. Plates were incubated at 35° C. for 48 h and MICs were determined as described above. At least two independent assays were performed.

E. coli ATCC 25922 = assay: Checkerboard synergy with erythromycin; format: cell-based, Escherichia coli; details: Escherichia coli
Protocol: The combined effect of compound 1 and CTX for E. coli SA/2, VAN for E. faecalis B3/101, COL for E. coli 2252, erythromycin for E. coli ATCC 25922, and OXA for S. aureus 66/1 was evaluated by the checkerboard method. […] The interaction between compound 1 and erythromycin was assessed for E. coli ATCC 25922. Gram-negative bacteria are intrinsically resistant to erythromycin, a macrolide that inhibits protein synthesis, and cannot penetrate the outer membrane of Gram-negative bacteria, which is impermeable to hydrophobic antibiotics. Ascertain ceragenins have been previously described to be able to enhance the efficacy of such antibiotics, this possibility was investigated for compound 1 and a FICI of 0.6 was obtained.

| SMILES | mitochondrial activity (MTT reduction) vs untreated control (C. albicans ATCC 10231 [1]) | reduction of SYTO 9/PI ratio vs untreated control (C. albicans ATCC 10231 [2]) | increase of MIC in the presence of exogenous ergosterol (C. albicans ATCC 10231 [3]; 400 μg/mL ergosterol vs absence) | MIC (C. albicans ATCC 10231 [3]; absence of exogenous ergosterol) | MIC (C. albicans ATCC 10231 [3]; presence of 400 μg/mL of exogenous ergosterol) | MIC (E. coli ATCC 25922; ATCC25922, E. coli ATCC 25922, erythromycin alone) | MIC (E. coli ATCC 25922; ATCC25922, E. coli ATCC 25922, with 16 μg/mL of compound 1 (½×MIC)) |
| --- | --- | --- | --- | --- | --- | --- | --- |
| C[C@@H](c1ncncc1F)[C@](O)(Cn1cncn1)c1ccc(F)cc1F [VRC, voriconazole] | identical effect |  |  |  |  |  |  |
| C[C@@H]1[C@H](O)[C@@H](C)/C=C/C=C/C=C/C=C/C=C/C=C/C=C/[C@H](O[C@@H]2O[C@H](C)[C@@H](O)[C@H](N)[C@@H]2O)C[C@@H]2O[C@](O)(C[C@@H](O)C[C@@H](O)[C@H](O)CC[C@@H](O)C[C@@H](O)CC(=O)O[C@H]1C)C[C@H](O)[C@H]2C(=O)O [Amphotericin B] | significantly reduced | statistically significant | 8 times | 2 µg/mL (≈ 2.16 µM) | 16 µg/mL |  |  |
| CC[C@H]1OC(=O)[C@H](C)[C@@H](O[C@H]2C[C@@](C)(OC)[C@@H](O)[C@H](C)O2)[C@H](C)[C@@H](O[C@@H]2O[C@H](C)C[C@H](N(C)C)[C@H]2O)[C@](C)(O)C[C@@H](C)C(=O)[C@H](C)[C@@H](O)[C@]1(C)O [erythromycin, reference compound] |  |  |  |  |  | 16 µg/mL | 0.125 µg/mL |
